Values joined by “and” are separate entries in the source; they are usually repeats but may differ in a detail not shown here. Equal entries are not always repeated.
Tested on: children with NS
Experiment: Total Immunosuppression Score (TIS) before and after addition of pioglitazone
Format: in vivo, human
Set-up: % TIS reduction (0-1 mo) / % TIS reduction (5-7 mo) / % TIS reduction (0-1 mo), Mean (SEM) / % TIS reduction (5-7 mo), Mean (SEM): concentration or dose not given beside the values
Experimental: The reduction in overall immunosuppression can be quantified by comparing the “Total Immunosuppression Score” (TIS) prior to and after the addition of a TZD to the drug regimen (see FIG. 3 herein). The TIS is based on a combination of the number of immunosuppressive drugs being administered and the dose at which each drug is administered. The score for each drug is on a scale of 0 to 4, where: 0=no drug administered; 1=drug administered up to less than 25% of the standardized full dose; 2=drug administered between 25% and less than 50% of the standardized full dose; 3=drug administered between 50% and less than 75% of the standardized full dose; 4=drug administered between 75% and 100% of the standardized full dose. As an example, if five different immunosuppressive medicaments are co-administered to a subject each at their standardized full dose, the TIS=20.
For each patient, a Total Immunosuppression Score (TIS) (see Table 3) was calculated to quantitate overall immunosuppression. For each class of immunosuppressive drug administered during a given time period, a score of 0-4 was assigned based on the percentage of a full dose for each patient's body size (0=0%; 1=<25%; 2=≥25-<50%; 3=≥50-<75%: 4=≥75%).
Quantitative data, such as patient age, duration of NS, pioglitazone dosage, and outcomes of UPCR, TIS, and serum albumin, were summarized as means (standard errors of mean), while categorical data such as renal survival status were summarized as frequency (percent). Due to a small sample size, Responders and Non-responders were compared using Wilcoxon Rank Sum tests on quantitative variables and Fisher's exact tests on categorical variables. For both Responders and Non-responders, pre-pioglitazone to post-pioglitazone initiation changes in UPCR, TIS, and serum albumin levels were analyzed using Wilcoxon Signed Rank tests. Numbers of hospitalizations pre-pioglitazone and post-pioglitazone initiation were analyzed and compared using Poisson distributions. Statistical significance was assessed at both the 0.05 and 0.10 levels. All analyses were conducted using SPSS software ver. 26 (IBM, Armonk, NY, USA).

[1] = Patient 1 (Responder), pre-PIO 13
[2] = Patient 1 (Responder), vs 0-1 mo pre-PIO
[3] = Patient 2 (Responder), pre-PIO 12
[4] = Patient 2 (Responder), vs 0-1 mo pre-PIO
[5] = Patient 3 (Responder), pre-PIO 0
[6] = Patient 3 (Responder), vs 0-1 mo pre-PIO (TIS 0)
[7] = Patient 5 (Non-responder), pre-PIO 4
[8] = Patient 5 (Non-responder), vs 0-1 mo pre-PIO
[9] = Patient 6 (Responder), pre-PIO 2
[10] = Patient 7 (Non-responder), pre-PIO 3
[11] = Patient 7 (Non-responder), vs 0-1 mo pre-PIO
[12] = Patient 8 (Responder), pre-PIO 4
[13] = Patient 8 (Responder), vs 0-1 mo pre-PIO
[14] = mean of 5 Responders, pre-PIO 6.20

## CCc1ccc(CCOc2ccc(CC3SC(=O)NC3=O)cc2)nc1 (stereo not shown) [pioglitazone]
Non-responders, before and after pioglitazone treatment
  mean TIS: approximately 3.5
[1]
  Post-PIO TIS (0-1 mo): 11
  Post-PIO TIS (5-7 mo): 5
[2]
  % TIS reduction (0-1 mo): 15% and 15.4%
  % TIS reduction (5-7 mo): 62% and 61.5%
[3]
  Post-PIO TIS (0-1 mo): 12
  Post-PIO TIS (5-7 mo): 8
[4]
  % TIS reduction (0-1 mo): 0%
  % TIS reduction (5-7 mo): 33% and 33.3%
[5]
  Post-PIO TIS (0-1 mo): 2
  Post-PIO TIS (5-7 mo): 1
[6]
  % TIS reduction (0-1 mo): −∞
  % TIS reduction (5-7 mo): −∞
Patient 4 (Non-responder), over the next 1 month
  TIS increase: 133%
Patient 4 (Non-responder), pre-PIO 3
  Post-PIO TIS (0-1 mo): 7
Patient 4 (Non-responder), vs 0-1 mo pre-PIO
  % TIS reduction (0-1 mo): −133%
[7]
  Post-PIO TIS (0-1 mo): 4
  Post-PIO TIS (5-7 mo): 4
[8]
  % TIS reduction (0-1 mo): 0.00%
  % TIS reduction (5-7 mo): 0.00%
[9]
  Post-PIO TIS (0-1 mo): 2
  Post-PIO TIS (5-7 mo): 2
Patient 6 (Responder), vs 0-1 mo pre-PIO
  % TIS reduction (5-7 mo): 0.00%
[10]
  Post-PIO TIS (0-1 mo): 3
  Post-PIO TIS (5-7 mo): 3
[11]
  % TIS reduction (0-1 mo): 0.00%
  % TIS reduction (5-7 mo): 0.00%
[12]
  Post-PIO TIS (0-1 mo): 3
  Post-PIO TIS (5-7 mo): 2
[13]
  % TIS reduction (0-1 mo): 25%
  % TIS reduction (5-7 mo): 50%
Responders, mean TIS 6.2 at 0-1 month pre- to 3.6 at 5-7 months post-pioglitazone
  decrease in overall exposure to immunosuppressive medications (mean TIS): 42%
Mean of 5 Responders
  % TIS reduction (0-1 mo), Mean (SEM): −∞
  % TIS reduction (5-7 mo), Mean (SEM): −∞
[14]
  Post-PIO TIS (0-1 mo), Mean (SEM): 6.00
  Post-PIO TIS (5-7 mo), Mean (SEM): 3.6
Mean of Non-responders
  % TIS reduction (0-1 mo), Mean (SEM): −44.4%
Mean of Non-responders (Patient 4 ESRD)
  Post-PIO TIS (5-7 mo), Mean (SEM): 3.50
Mean of Non-responders (Patient 4 NA)
  % TIS reduction (5-7 mo), Mean (SEM): 0.00%
Mean of Non-responders, pre-PIO 3.33
  Post-PIO TIS (0-1 mo), Mean (SEM): 4.67

From patent US20250281507A1, “METHODS OF TREATING NEPHROTIC SYNDROME” (The Research Institute at Nationwide Children's Hospital, priority 2021, published 2025)
